Reference: patent US5393923A, “3,5-di-t-butyl-4-hydroxyphenylmethylhydroxylamines and their derivatives, pharmaceutical compositions, and methods of use therefor” (Warner-Lambert Company, priority 1993, dated 1995)

Legend:
[1] = test system: gastric ulcers; test: Gastric ulcerogenicity (UD); format: in vivo, Male outbred Wistar rats; conditions: @ 200 mg/kg; oral, fasted rats, 6 hours; class symbol
Procedure: GASTRIC ULCEROGENICITY (UD): PROTOCOL
Male outbred Wistar rats (100 to 250 g) are fasted for 24 hours. After fasting, test compounds are administered orally (in 2 mL/kg of 0.5% hydroxypropyl methylcellulose) and the rats are denied access to food and water for 6 more hours. The rats are then sacrificed with CO2 so that the stomachs can be removed, opened along the greater curvature, and evaluated for the presence of gastric ulcers. Results are expressed as the percent of rats with gastric ulcers at a given dose or as the UD50 (the dose which causes ulcers in 50% of the rats).

[2] = target: T1, cyclooxygenase (Rattus norvegicus, UniProt Q63921); test: ARBC whole cell cyclooxygenase assay (PGF2α formation, RBL-1 cells); format: cell-based
T1 construct: host or cells: RBL-1
T1 sequence (Q63921 27-602): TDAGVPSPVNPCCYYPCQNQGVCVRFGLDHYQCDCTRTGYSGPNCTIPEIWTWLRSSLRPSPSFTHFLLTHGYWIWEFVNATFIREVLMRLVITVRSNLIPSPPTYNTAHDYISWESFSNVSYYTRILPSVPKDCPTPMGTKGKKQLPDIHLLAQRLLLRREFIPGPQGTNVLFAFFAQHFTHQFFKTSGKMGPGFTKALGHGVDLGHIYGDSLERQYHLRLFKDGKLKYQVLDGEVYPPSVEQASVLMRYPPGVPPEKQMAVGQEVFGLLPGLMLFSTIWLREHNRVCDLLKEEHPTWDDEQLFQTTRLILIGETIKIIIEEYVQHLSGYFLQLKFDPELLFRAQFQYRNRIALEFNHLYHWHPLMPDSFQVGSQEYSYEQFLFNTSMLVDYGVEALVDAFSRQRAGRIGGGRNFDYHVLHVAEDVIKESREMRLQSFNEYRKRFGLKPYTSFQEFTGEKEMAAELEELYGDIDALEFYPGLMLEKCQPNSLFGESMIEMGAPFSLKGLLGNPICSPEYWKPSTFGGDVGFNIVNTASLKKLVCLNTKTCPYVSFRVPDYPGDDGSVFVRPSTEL
Procedure: (§1) ARBL/ARBC WHOLE CELL 5-LIPOXYGENASE AND CYCLOOXYGENASE ASSAYS The rat basophilic leukemia cell line (RBL-1) was obtained from the American Type Culture Collection (Rockville, Md.). Radioimmunoassay (RIA) kits of LTB4 and PGF2α were obtained from Amersham (Arlington Heights, Ill.) and Seragen (Boston, Mass.), respectively. RBL-1 cells are grown in suspension culture in Eagle's minimum essential medium supplemented with 12% fetal bovine serum at 37° C. in an incubator supplied with air-5% carbon dioxide. Cells are harvested by centrifugation. They are washed with cold phosphate-buffered saline, pH 7.4 (PBS; NaCl, 7.1 g; Na2 HPO4, 1.15 g; KH2 PO4, 0.2 g; and KCl, 0.2 g/L). Cells are finally suspended in PBS containing 1.0 mM calcium at a density of 2×10^6 cells/mL. Cells are incubated […] test agent (in DMSO) (1% DMSO is without effect on arachidonic acid metabolism) for 10 minutes at room temperature. Calcium ionophore A23187 (5 μM) is added and cells are incubated for 7 minutes at 37° C. The reaction is stopped by chilling the tubes on ice for 10 minutes. Cells are separated by centrifugation and the supernatant is stored at -20° C. Aliquots (100 μL) are analyzed for LTB4 and PGF2α using radioimmunoassay kits as provided by the supplier. Table 1 contains biochemical data for compounds of Formula I obtained from this whole cell assay as amount of inhibition at given μM or IC50 s which are calculated as the concentration of a test compound in micromoles (μM) causing 50% inhibition of LTB4 or PGF2αformation.

[3] = test system: Mycobacterium-induced rat footpad edema; test: Mycobacterium-induced rat footpad edema assay (MFE); format: in vivo; conditions: dosed 1 hour before Mycobacterium and on Days 1 and 2, swelling at 72 hours, read-out: MFE ID40
Procedure: MYCOBACTERIUM-INDUCED RAT FOOTPAD EDEMA ASSAY (MFE): PROTOCOL
Mycobacterium butyricum (5 mg/mL) is suspended in paraffin oil by sonication for 10 minutes in an ice bath. Footpad edema is induced on Day 0 by injecting 0.1 mL of the Mycobacterium mixture into the left hindpaw of lightly anesthetized rats. Swelling in the injected hindpaw is determined by mercury plethysmography 72 hours after injection. Groups of rats are treated with test compounds (suspended in 0.5% hydroxypropyl methylcellulose with 0.2% Tween-80) or vehicle 1 hour before Mycobacterium injection and on Days 1 and 2. Inhibition of swelling is determined by comparing the change in hindpaw volume in compound- and vehicle-treated rats. An ID40 (the dose at which swelling is inhibited by 40%) is calculated by probit analysis.

[4] = test system: carrageenan-induced rat foot paw edema; test: Carrageenan-induced rat foot paw edema-2 (CFE-2) assay; format: in vivo; conditions: dosed 1 hour before carrageenan, edema measured 5 hours after, read-out: CFE ID40
Procedure: CARRAGEENAN-INDUCED RAT FOOT PAW EDEMA-2 (CFE-2) ASSAY: PROTOCOL
Carrageenan solution (1% w/v) is prepared by dissolving 100 mg carrageenan (Marine Colloidal Div., Springfield, N.J.) in 10 mL of sterile saline (0.9%) solution (Travenol). The solution is vortexed for 30 to 45 minutes. Animals are dosed with compound 1 hour before carrageenan challenge. Foot paw edema is induced by injecting 0.10 mL of the 1% carrageenan subcutaneously into the plantar portion of the right hind paw of each rat under light anesthesia. Initial foot paw volume is measured immediately following carrageenan challenge using mercury plethysmography (Buxco Electronics). Edema is measured 5 hours after carrageenan. The difference between the 5-hour and the initial paw volume is expressed as delta edema. The delta edema for each test group of animals is used to calculate the percent inhibition of edema achieved by the compound at the test dose compared with the vehicle control group. The ID40 (the dose at which swelling is inhibited by 40%) is calculated by probit analysis for the dose at which 40% inhibition occurs.

[5] = target: T2, 5-lipoxygenase (Rattus norvegicus, UniProt P12527); test: ARBL whole cell 5-lipoxygenase assay (LTB4 formation, RBL-1 cells); format: cell-based; conditions: 50% inhibition of LTB4 formation
T2 construct: host or cells: RBL-1
T2 sequence (P12527 1-673): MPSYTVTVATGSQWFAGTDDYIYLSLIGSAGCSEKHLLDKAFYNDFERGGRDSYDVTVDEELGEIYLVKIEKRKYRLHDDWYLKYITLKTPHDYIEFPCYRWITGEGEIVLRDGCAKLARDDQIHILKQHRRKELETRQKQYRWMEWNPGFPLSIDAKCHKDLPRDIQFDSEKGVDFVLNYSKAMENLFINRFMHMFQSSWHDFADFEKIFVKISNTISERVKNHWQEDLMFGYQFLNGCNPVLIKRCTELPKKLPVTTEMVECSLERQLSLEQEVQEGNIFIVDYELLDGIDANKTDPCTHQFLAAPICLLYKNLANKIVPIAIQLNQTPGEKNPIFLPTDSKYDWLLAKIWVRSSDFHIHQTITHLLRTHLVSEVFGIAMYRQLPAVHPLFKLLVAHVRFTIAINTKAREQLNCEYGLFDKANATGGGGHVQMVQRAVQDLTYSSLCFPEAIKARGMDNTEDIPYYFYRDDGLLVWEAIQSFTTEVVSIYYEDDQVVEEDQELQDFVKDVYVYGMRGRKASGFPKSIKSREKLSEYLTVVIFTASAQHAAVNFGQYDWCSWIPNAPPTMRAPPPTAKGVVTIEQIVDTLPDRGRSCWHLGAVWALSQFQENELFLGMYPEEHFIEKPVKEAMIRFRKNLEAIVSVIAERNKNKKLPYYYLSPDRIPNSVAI
Procedure: as §1

CC(C)(C)c1cc(C(NO)c2ccccc2)cc(C(C)(C)C)c1O (centres unmarked) [Example 20]
UD50 [1]: N (N = less than 40% inhibition at given concentration)
IC50 ([2]; 50% inhibition of PGF2α formation): 4.1 µM
ED40 [3]: 3.8 mg/kg
ED40 [4]: 13.2 mg/kg
IC50 [5]: 2.3 µM

CC(=O)N(O)C(c1ccccc1)c1cc(C(C)(C)C)c(O)c(C(C)(C)C)c1 (centres unmarked) [Example 22, N-[[3,5-Bis(1,1-dimethylethyl)-4-hydroxyphenyl]-phenylmethyl]-N-hydroxyacetamide]
ARBC inhibition of PGF2α at given concentration ([2]; @ 16 μM, A23187): 42/75
ED40 [4]: > 30 mg/kg
IC50 [5]: 4.8 µM
